{
  "source": "patent US6362167B1",
  "about": "“Method of blocking free radical processes which result in mediated pathology without deleterious pro-oxidant side reactions” (Natreon Inc., priority 1999, dated 2002)",
  "key": {"[1]": {"assay": "DPPH radical scavenging (antioxidant activity)", "assay_type": "biochemical", "conditions": "DPPH 100 μM in absolute ethyl alcohol, 20 minutes, absorbance 570 nm; mean ± SEM (n = 10 to 12)", "protocol": "After 20 minutes, the absorbance (optical density) of the mixture was measured at a wavelength of 570 nm and compared to that of the control sample. The degree of scavenging of the DPPH radical by each test sample was calculated by comparing the absorbance of the test sample and the diluent control reaction mixture. The results are shown in Table 2 below, a lower IC value indicating a better antioxidant effect on the DPPH radical."}, "PBR 322 plasmid DNA": {"test_system": "PBR 322 plasmid DNA", "assay": "Prevention of DNA strand scission by hydroxyl radical from Cu(en)2-hydrogen peroxide", "assay_type": "biochemical", "protocol": "The DNA strand scission was investigated by a method published by T. Ozawa, et al [Biochem. Mol. Biol. Int. 31, 455-46, 1993]. The method consists of addition of hydrogen peroxide (30%, final concentration 25 mM) to a mixture of Cu(en)2 (final concentration 0.25 mM) and 0.5 mcg of PBR 322 plasmid DNA solution (Takara Co., Japan). The hydroxyl radical, generated from Cu(en)2-hydrogen peroxide reaction, caused DNA strand scission."}, "[2]": {"assay": "Polymerization of methylmethacrylate (MMA) to polymethylmethacrylate (PMMA) by Fenton's reagent", "conditions": "for Effect on polymerization of MMA→PMMA: low concentrations of ascorbic acid (1.0 mg in b63)", "protocol": "Thus, the pro-oxidant effect of a low concentration of AA could be systemically quite dangerous due to distinct involvement of OH radicals. […] N2 was passed through the mixture for 30 min. followed by H2O2. The onset of polymerization (the induction period in minutes) was noted. Polymerization was completed in about 24 hours at 35±2° C. The resulting precipitate was collected, washed and dried at 50° C. until a constant weight was obtained (See Table 3)."}, "[3]": {"conditions": "DNA + OH radical + test material"}, "[4]": {"conditions": "3 g sample added (so in the source)"}},
  "data": [
    {"compound": "O=C1O[C@H]([C@@H](O)CO)C(O)=C1O", "note": "[AA, Ascorbic acid]", "values": [
      {"measurement": "IC50 (DPPH radical scavenging)", "setting": "[1]", "value": "18.41 ± 3.88", "unit": "µg/mL"},
      {"measurement": "Linear form of DNA (LIN, Produced after breakage)", "setting": "PBR 322 plasmid DNA; [3]", "value": 60, "unit": "%"},
      {"measurement": "Open circular form Of DNA (OC)", "setting": "PBR 322 plasmid DNA; [3]", "value": 40, "unit": "%"},
      {"measurement": "Effect on DNA strand-scission by hydroxyl radicals compared to the control value", "setting": "PBR 322 plasmid DNA; physiological pH, Cu(en)2 and hydrogen peroxide", "value": "accelerated"},
      {"measurement": "% Conversion of MMA → PMMA", "setting": "[2]; 1 mg sample added", "value": "78.7 ↑ %"},
      {"measurement": "Induction Time", "setting": "[2]; 1 mg sample added", "value": 0, "unit": "min"},
      {"measurement": "Yield of PMMA", "setting": "[2]; 1 mg sample added", "value": 772, "unit": "mg"},
      {"measurement": "% Conversion of MMA → PMMA", "setting": "[2]; 2 mg sample added", "value": "69.8 ↑ %"},
      {"measurement": "Induction Time", "setting": "[2]; 2 mg sample added", "value": 0, "unit": "min"},
      {"measurement": "Yield of PMMA", "setting": "[2]; 2 mg sample added", "value": 692, "unit": "mg"},
      {"measurement": "% Conversion of MMA → PMMA", "setting": "[2]; 4 mg sample added", "value": 44.0, "unit": "%"},
      {"measurement": "Induction Time", "setting": "[2]; 4 mg sample added", "value": 0, "unit": "min"},
      {"measurement": "Yield of PMMA", "setting": "[2]; 4 mg sample added", "value": 432, "unit": "mg"},
      {"measurement": "% Conversion of MMA → PMMA", "setting": "[2]; 5 mg sample added", "value": 23.1, "unit": "%"},
      {"measurement": "Induction Time", "setting": "[2]; 5 mg sample added", "value": 0, "unit": "min"},
      {"measurement": "Yield of PMMA", "setting": "[2]; 5 mg sample added", "value": 227, "unit": "mg"},
      {"measurement": "% Conversion of MMA → PMMA", "setting": "[2]; 10 mg sample added", "value": 8.4, "unit": "%"},
      {"measurement": "Induction Time", "setting": "[2]; 10 mg sample added", "value": 0, "unit": "min"},
      {"measurement": "Yield of PMMA", "setting": "[2]; 10 mg sample added", "value": 83, "unit": "mg"},
      {"measurement": "% Conversion of MMA → PMMA", "setting": "[2]; [4]", "value": "68.2 ↑ %"},
      {"measurement": "Induction Time", "setting": "[2]; [4]", "value": 0, "unit": "min"},
      {"measurement": "Yield of PMMA", "setting": "[2]; [4]", "value": 670, "unit": "mg"},
      {"measurement": "Effect on polymerization of MMA→PMMA", "setting": "[2]", "value": "significant augmentation of polymerization"},
      {"measurement": "Effect on polymerization of MMA→PMMA", "setting": "[2]; listed as ascorbic acid", "value": "augmented polymerization"}
    ]},
    {"compound": "CC(=O)Oc1c(C)c(C)c2c(c1C)CCC(C)(CCC[C@H](C)CCC[C@H](C)CCCC(C)C)O2", "note": "(stereo partly drawn) [α-Tocopheryl acetate (TA), α-Tocopheryl acetate]", "values": [
      {"measurement": "IC50 (DPPH radical scavenging)", "setting": "[1]", "value": "50.55 ± 7.03", "unit": "µg/mL"}
    ]}
  ]
}
